Assay results taken from patent US20090036380A1, “Composition And Method For Brain Tumor Therapy” (Yeda Research and Development Co., Ltd., priority 2006, published 2009).
“Also recorded” adds a separate entry of the source.

How the values were obtained:
[1] = system: TrkA; assay: Co-immunoprecipitation of HA-Karet constructs with TrkA; assay type: binding; conditions: co-transfected Hek or NNR5 cells, anti-HA IP
Experimental: FIG. 3c is a co-immunoprecipitation assay depicting co-immunoprecipitation of HA-Karet with TrkA in COS cells. Karet tagged with the HA epitope was immunoprecipitated with anti-HA antibody and the blot was incubated with anti-TrkA (RTA). In control experiments the HA-Karet was substituted with vector.
FIG. 3d is a co-immunoprecipitation assay depicting interaction of Karet and TrkA in NNR5 cells transfected with TrkA.
FIG. 3e is a co-immunoprecipitation assay depicting co-immunoprecipitation of HA-Karet with TricA in co-transfected NNR5 cells immunoprecipitated with anti-HA (Roche) and Western blot with the anti-TrkA antibody C14 (Santa Cruz).
FIGS. 4a-c are co-immunoprecipitation assay results depicting the influence of NGF treatment on TrkA-Karet interaction. FIG. 4a depicts that TrkA-Karet interaction occurred prior to NGF treatment and was enhanced after ligand stimulation for 10 minutes (10 m) or 2 hours (2 h). HA-Karet was electroporated into cell line PC12, and the cells were treated with 50 ng/ml NGF for the indicated time periods in order to activate p75 and TrkA. Karet tagged with the HA epitope was immunoprecipitated with anti-HA antibody, the precipitated proteins were separated electrophoretically, and gel blots were incubated with anti-TrkA antibody (RTA). FIG. 4b depicts that necdin seems to compete with TrkA for binding to Karet. myc-Karet was electroporated into necdin stable cell line, and the cells were treated with 50 ng/ml NGF for the indicated time periods. Karet tagged with the myc epitope was immunoprecipitated with anti-myc antibody, the precipitated proteins were separated electrophoretically, and gel blots were incubated with anti-TrkA antibody (RTA). […] A blot from the same experiment was stripped and re-incubated with anti-necdin antibody. The arrow indicates the glycosylated form of TrkA (molecular weight of 140 kDa).
FIG. 7b is an immunoprecipitation assay depicting that the PTB domain-containing Karet(1-228) mutant, but not Karet(228-453) co-immunoprecipitates with TrkA in NNR5 cells. Truncation mutants tagged with the HA epitope were immunoprecipitated with anti-HA antibody, the precipitated proteins were separated electrophoretically, and gel blots were incubated with anti-TrkA (RTA).
FIGS. 24a-d depict co IP of Ha Karet with TrkA, TrkB, TrkC, p75 from co-transfected Hek cells. Cells were co-transfected with Ha Karet or control vector and TrkA, TrkB, TrkC or p75. Cells were lysed with NP40, the HA-beads (beads conjugated to anti-HA antibody) were blocked with Hek lysate, and elution was done for 30 minutes at 37° C. […]

[2] = system: PC12 cells; assay: Viability / death of PC12 cells after transfection with Karet constructs (Live/dead kit, FACS, cell counting, Hoechst); assay type: cell-based, rat; conditions: for cell viability / death versus control vector: PC12, 18 hours after transfection, dead/live kit and FACS
Experimental: FIG. 5a is a bar-graph of FACS data depicting 50 percent death of PC12 cells overexpressing Karet. Shown is a FACS analysis of PC12 viability 15 hours after transfection with Ha-Karet or control vector using Live/dead kit (Molecular probes), T-test=0.003.
FIG. 5b is a series of fluorescence photomicrographs depicting death of PC12 cells caused by Karet overexpression. Shown is a live/dead kit analysis of PC12 cells overexpressing Ha-Karet (left panels) versus control vector-transfected cells (right panels). Live cell are stained in green, dead cells are stained in red. Upper panels each show red fluorescence only (left picture) and green fluorescence only (right picture) pairs, and lower panels each show combined red and green fluorescence (left picture) and light microscopy images (right picture) pairs.
FIG. 5d is a pair of Hoechst stain histology photomicrographs depicting condensation of chromatin indicating apoptosis in PC12 cells expressing Karet, but not in control cells transfected with vector only.
FIG. 5e is a histogram depicting that Karet expression induces cell death of TrkA expressing cells, which is increased by NGF treatment and is decreased by necdin. PC12 or PC12 necdin stable cell line were electroporated with Karet or GFP control and incubated with or without 50 ng/ml NGF for 12 hours. Cells were counted and result presented as percent of control.
PC12 cells were transfected with Ha Karet, PTB, non PTB and their combinations. Cells were analyzed by FACS 18 hours after transfection using the dead/live kit. N=3; * p<0.05; **p<0.001;
The lower panel is a histogram depicting that Karet-mediated cell death correlates well with expression levels of the Karet protein. PC12 Tet-on cells were electroporated with Ha-Karet cloned under inducible promoter and incubated for 24 hours with different concentrations of doxycycline. Cells transfected with Karet but not treated with doxycycline served as control. Cells were counted and the results were determined as percent of control. The upper panel is a control Western blot depicting increased Karet expression with increased concentrations of doxycycline. Cells transfected with Karet and treated with doxycycline were lysed in NP-40 buffer and subjected to SDS-PAGE analysis. Similar amount of protein was loaded and blotted for Karet expression with Ha antibody. Proteins levels were checked with anti-tubulin antibody.
FIG. 18a—PC12 were transfected with Ha Karet, Karet F217V, PTB F217V or a control vector (pcDNA3) and 18 hours after transfection the effect of Karet or Karet mutants on cell death was determined using the dead/live kit and FACS analysis. Results are presented in percentages as compared to cells transfected with the control vector. N=3 **P<0.001. […] FIG. 18b—Cells were lysed 24 hours after transfection, fractionated on SDS-PAGE and immunoblot for anti Ha (Covance).
FIG. 19 is a histogram depicting FACS analysis of Karet-induced death. PC12 cells were co-transfected with Karet and the PTB, non-PTB or the F217V mutant at different ratios (1:1, 1:2, 1:3) and 18 hours after transfection the cells were analyzed by FACS using the dead/live kit.
Viability of cells was evaluated using the Live/dead viability/cytotoxicity kit (Cat. No. L-3224), Molecular Probes, Inc., Eugene, Oreg., USA, according to manufacturer's instructions.

Substance | co-immunoprecipitation / interaction with TrkA [1] | cell viability / death versus control vector [2] | cell death versus Karet expression level ([2]; PC12 Tet-on cells, 24 hours, different concentrations of doxycycline) | Hoechst staining ([2]; PC12 cells expressing Karet versus control-transfected cells) | effect on Karet-induced death in competition assay ([2]; PC12 co-transfected with Karet at ratios 1:1, 1:2, 1:3, FACS 18 hours after transfection)
Karet: full-length mouse Karet protein (SEQ ID NO:1), PTB domain protein, expressed from pcDNA3 with HA tag | co-immunoprecipitated | significant reduction in the viability | well correlated with expression levels of the Karet protein | condensed chromatin indicating apoptotic death | 
Karet F217V: full-length mouse Karet with phenyl alanine at position 217 point mutated to valine | co-immunoprecipitated | do not cause death; also recorded: does not induce cell death |  |  | reduced Karet-induced death
